Measurements reported in PMC4032265 (PLoS ONE, 2014).
Values joined by “and” are separate entries in the source; they are usually repeats but may differ in a detail not shown here. Equal entries are not always repeated. Where two headings read alike, the source gives them in different places.

What was measured:
β3 adrenergic receptor = β3 adrenergic receptor (Homo sapiens, UniProt P13945); assay: PDSP radioligand binding, β3; conditions: for Ki: full concentration-response curves, n = 3-6 unless noted; for inhibition at 10 µM: read-out: % inhibition at 10 µM
[1] = biological target: 5HT2B serotonergic receptor (Homo sapiens, UniProt P41595); assay: PDSP radioligand binding, 5HT2B; conditions: for Ki: full concentration-response curves, n = 3-6 unless noted; for inhibition at 10 µM: read-out: % inhibition at 10 µM
[2] = biological target: T1, 5HT2C serotonergic receptor (Homo sapiens, UniProt P28335); assay: PDSP radioligand binding, 5HT2C; conditions: for Ki: full concentration-response curves, n = 3-6 unless noted; for inhibition at 10 µM: read-out: % inhibition at 10 µM
T1 sequence (P28335 33-458): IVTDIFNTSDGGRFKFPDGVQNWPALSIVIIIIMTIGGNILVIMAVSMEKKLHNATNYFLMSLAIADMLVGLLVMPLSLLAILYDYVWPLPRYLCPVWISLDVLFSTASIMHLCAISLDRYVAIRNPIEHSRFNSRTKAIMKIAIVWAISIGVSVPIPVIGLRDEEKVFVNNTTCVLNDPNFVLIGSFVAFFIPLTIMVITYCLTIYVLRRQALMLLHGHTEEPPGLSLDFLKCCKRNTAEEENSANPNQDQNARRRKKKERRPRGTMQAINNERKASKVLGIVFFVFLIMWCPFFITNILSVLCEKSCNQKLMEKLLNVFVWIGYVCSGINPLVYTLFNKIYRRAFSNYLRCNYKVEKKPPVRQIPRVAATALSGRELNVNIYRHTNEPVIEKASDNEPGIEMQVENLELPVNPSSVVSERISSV

[3] = biological target: 5HT5A serotonergic receptor (Homo sapiens, UniProt P47898); assay: PDSP radioligand binding, 5HT5A; conditions: for inhibition at 10 µM: read-out: % inhibition at 10 µM
δ opioid receptor = δ opioid receptor (Homo sapiens, UniProt P41143); assay: PDSP radioligand binding, δ opioid; conditions: for Ki: full concentration-response curves, n = 3-6 unless noted; for inhibition at 10 µM: read-out: % inhibition at 10 µM
α1B adrenergic receptor = biological target: T2, α1B adrenergic receptor (Homo sapiens, UniProt P35368); assay: PDSP radioligand binding, α1B; conditions: read-out: % inhibition at 10 µM
T2 sequence (P35368 1-520): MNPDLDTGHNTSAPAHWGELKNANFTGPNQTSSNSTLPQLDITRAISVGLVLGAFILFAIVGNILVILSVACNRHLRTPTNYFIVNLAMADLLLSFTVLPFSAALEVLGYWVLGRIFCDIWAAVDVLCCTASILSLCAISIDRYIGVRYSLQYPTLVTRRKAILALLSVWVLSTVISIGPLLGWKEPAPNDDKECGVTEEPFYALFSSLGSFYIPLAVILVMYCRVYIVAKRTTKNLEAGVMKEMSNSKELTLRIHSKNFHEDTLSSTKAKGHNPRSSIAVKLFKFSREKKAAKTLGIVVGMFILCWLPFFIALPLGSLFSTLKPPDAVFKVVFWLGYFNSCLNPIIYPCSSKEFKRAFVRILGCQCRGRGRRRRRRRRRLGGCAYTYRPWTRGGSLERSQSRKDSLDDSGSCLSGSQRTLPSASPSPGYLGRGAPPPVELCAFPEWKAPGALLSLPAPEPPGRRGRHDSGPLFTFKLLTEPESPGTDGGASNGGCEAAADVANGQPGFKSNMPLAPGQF

[4] = biological target: T3, M1 muscarinic acetylcholine receptor (Homo sapiens, UniProt P11229); assay: PDSP radioligand binding, M1; conditions: read-out: % inhibition at 10 µM
T3 sequence (P11229 1-460): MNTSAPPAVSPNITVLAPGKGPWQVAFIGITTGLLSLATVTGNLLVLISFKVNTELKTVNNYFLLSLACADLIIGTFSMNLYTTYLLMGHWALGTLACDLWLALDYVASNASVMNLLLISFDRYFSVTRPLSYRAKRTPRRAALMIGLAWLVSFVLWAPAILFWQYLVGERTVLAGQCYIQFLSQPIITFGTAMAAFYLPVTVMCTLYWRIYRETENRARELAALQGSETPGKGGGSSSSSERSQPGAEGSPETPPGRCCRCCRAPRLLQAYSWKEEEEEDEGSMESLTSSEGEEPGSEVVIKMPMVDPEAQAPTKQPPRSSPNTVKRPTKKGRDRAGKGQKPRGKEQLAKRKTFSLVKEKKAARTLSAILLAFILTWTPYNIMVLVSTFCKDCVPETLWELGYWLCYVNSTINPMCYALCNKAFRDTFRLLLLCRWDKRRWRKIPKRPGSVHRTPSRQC

[5] = biological target: M3 muscarinic acetylcholine receptor (Homo sapiens, UniProt P20309); assay: PDSP radioligand binding, M3; conditions: read-out: % inhibition at 10 µM
[6] = biological target: T4, M4 muscarinic acetylcholine receptor (Homo sapiens, UniProt P08173); assay: PDSP radioligand binding, M4; conditions: read-out: % inhibition at 10 µM
T4 sequence (P08173 1-479): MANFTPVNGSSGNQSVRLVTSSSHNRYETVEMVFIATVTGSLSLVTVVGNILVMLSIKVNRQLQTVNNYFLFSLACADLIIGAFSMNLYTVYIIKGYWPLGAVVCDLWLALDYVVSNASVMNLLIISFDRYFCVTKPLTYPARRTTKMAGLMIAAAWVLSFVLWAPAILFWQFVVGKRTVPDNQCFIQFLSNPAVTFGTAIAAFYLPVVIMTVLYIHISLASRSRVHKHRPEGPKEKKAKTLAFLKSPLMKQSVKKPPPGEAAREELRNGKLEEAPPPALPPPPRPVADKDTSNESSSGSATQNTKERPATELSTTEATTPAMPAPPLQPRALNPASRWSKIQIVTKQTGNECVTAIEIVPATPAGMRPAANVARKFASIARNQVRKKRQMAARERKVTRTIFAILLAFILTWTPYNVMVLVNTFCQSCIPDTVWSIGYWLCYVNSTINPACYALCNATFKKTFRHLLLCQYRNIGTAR

D1 dopaminergic receptor = D1 dopaminergic receptor (Homo sapiens, UniProt P21728); assay: PDSP radioligand binding, D1; conditions: read-out: % inhibition at 10 µM
D2 dopaminergic receptor = D2 dopaminergic receptor (Homo sapiens, UniProt P14416); assay: PDSP radioligand binding, D2; conditions: read-out: % inhibition at 10 µM
D4 dopaminergic receptor = biological target: T5, D4 dopaminergic receptor (Homo sapiens, UniProt P21917); assay: PDSP radioligand binding, D4; conditions: read-out: % inhibition at 10 µM
T5 sequence (P21917 1-419): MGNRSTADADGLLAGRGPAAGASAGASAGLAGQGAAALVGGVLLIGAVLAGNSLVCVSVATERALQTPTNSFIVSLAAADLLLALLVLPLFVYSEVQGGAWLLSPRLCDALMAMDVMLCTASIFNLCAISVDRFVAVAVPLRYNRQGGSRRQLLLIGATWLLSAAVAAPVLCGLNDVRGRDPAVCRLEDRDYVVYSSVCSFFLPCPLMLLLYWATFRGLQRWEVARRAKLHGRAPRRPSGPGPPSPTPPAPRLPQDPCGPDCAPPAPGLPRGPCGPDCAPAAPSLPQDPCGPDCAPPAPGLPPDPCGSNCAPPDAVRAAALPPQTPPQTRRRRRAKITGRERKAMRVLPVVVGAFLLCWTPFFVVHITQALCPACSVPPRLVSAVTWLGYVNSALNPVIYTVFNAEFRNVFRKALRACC

GABAA receptor = assay: PDSP radioligand binding, GABAA; conditions: single concentration 10 µM

Sequence of D2 dopaminergic receptor (P14416 whole entry): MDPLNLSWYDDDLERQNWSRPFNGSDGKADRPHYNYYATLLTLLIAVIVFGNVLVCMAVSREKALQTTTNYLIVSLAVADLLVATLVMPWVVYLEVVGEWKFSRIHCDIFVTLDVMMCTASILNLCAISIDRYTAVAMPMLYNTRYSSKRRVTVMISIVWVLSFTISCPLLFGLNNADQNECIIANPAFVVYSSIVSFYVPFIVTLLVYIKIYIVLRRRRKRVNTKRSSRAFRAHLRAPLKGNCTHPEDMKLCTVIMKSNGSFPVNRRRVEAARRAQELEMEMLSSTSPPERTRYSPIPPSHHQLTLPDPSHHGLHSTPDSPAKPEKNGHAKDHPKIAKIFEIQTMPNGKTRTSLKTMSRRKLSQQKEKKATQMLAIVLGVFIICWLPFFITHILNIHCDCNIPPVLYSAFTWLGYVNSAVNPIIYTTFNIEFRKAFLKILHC
Sequence of D1 dopaminergic receptor (P21728 whole entry): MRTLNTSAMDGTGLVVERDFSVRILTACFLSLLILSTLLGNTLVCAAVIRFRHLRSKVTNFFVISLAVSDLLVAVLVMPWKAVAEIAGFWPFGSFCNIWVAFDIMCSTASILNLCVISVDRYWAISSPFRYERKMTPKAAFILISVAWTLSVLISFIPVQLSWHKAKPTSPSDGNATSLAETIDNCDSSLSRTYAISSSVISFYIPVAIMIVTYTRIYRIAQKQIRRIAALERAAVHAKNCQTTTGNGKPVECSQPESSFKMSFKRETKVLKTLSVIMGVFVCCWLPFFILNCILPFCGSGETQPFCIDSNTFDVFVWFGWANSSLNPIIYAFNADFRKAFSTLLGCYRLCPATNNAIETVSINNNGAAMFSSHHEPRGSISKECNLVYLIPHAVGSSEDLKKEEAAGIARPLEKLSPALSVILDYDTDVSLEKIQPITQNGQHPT
Sequence of 5HT5A serotonergic receptor (P47898 whole entry): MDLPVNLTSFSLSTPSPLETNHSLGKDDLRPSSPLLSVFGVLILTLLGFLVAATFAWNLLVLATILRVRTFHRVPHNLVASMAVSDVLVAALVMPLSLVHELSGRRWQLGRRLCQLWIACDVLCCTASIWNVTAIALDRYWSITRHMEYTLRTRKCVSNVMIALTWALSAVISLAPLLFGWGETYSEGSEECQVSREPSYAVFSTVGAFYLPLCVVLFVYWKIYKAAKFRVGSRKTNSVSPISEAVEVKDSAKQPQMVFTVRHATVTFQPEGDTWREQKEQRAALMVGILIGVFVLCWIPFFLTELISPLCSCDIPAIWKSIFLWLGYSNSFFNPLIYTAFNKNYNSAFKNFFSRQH
Sequence of 5HT2B serotonergic receptor (P41595 whole entry): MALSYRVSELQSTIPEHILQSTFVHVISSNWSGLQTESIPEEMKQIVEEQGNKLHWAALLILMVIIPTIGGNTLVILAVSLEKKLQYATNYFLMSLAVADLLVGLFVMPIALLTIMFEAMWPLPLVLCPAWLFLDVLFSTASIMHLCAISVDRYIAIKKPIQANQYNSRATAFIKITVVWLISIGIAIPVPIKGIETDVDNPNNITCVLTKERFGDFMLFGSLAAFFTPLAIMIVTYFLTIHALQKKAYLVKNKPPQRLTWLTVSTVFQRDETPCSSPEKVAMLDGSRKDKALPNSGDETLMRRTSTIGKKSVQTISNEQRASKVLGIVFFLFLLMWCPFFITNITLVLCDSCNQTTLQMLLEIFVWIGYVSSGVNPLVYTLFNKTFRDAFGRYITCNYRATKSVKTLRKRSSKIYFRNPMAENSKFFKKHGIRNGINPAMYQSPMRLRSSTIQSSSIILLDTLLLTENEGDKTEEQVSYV
Sequence of δ opioid receptor (P41143 whole entry): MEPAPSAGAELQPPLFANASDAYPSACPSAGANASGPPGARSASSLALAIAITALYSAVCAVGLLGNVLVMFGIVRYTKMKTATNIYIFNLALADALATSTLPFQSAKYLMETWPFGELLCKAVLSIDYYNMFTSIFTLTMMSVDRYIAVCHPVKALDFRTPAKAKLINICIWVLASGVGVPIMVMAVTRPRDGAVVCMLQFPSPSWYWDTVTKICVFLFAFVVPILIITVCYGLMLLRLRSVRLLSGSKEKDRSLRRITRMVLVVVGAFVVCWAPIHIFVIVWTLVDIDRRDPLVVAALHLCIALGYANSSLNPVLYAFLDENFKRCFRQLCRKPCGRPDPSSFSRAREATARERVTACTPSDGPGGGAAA
Sequence of M3 muscarinic acetylcholine receptor (P20309 whole entry): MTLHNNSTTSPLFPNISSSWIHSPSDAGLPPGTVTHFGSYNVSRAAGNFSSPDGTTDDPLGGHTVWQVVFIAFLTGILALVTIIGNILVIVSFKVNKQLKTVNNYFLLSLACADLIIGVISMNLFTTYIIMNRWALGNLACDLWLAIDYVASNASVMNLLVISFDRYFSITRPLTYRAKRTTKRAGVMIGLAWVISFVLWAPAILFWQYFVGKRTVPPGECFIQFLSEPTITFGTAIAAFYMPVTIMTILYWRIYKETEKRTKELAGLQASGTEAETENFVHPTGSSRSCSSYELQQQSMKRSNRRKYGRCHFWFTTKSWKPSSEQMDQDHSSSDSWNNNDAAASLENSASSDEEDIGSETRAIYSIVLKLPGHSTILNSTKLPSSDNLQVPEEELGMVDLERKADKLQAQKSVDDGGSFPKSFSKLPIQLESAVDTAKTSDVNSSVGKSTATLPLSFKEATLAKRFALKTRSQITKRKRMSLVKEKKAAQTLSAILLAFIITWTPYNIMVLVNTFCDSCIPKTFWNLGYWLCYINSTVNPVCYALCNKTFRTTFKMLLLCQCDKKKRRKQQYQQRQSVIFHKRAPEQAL
Sequence of β3 adrenergic receptor (P13945 whole entry): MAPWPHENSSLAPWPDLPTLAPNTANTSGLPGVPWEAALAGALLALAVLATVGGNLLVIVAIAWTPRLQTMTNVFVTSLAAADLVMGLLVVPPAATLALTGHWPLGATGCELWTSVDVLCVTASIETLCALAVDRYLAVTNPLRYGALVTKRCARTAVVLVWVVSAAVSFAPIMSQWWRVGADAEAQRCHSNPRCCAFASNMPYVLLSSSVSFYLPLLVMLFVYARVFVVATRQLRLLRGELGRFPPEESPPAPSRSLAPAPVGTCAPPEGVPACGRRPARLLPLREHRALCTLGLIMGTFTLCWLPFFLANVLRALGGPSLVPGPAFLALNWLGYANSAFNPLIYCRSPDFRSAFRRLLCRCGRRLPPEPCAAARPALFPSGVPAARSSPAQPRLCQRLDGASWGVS

Structure (SMILES) | Ki (β3 adrenergic receptor) [nM] | Ki [1] [nM] | Ki [2] | % inhibition at 10 µM (GABAA receptor) [%] | inhibition at 10 µM (β3 adrenergic receptor; single concentration 10 µM) [%] | inhibition at 10 µM ([1]; single concentration 10 µM) [%] | inhibition at 10 µM ([2]; single concentration 10 µM) [%] | inhibition at 10 µM ([3]; single concentration 10 µM) [%] | inhibition at 10 µM (δ opioid receptor; single concentration 10 µM) [%] | inhibition at 10 µM (α1B adrenergic receptor; single concentration 10 µM) [%] | inhibition at 10 µM ([4]; single concentration 10 µM) [%] | inhibition at 10 µM ([5]; single concentration 10 µM) [%] | inhibition at 10 µM ([6]; single concentration 10 µM) [%] | inhibition at 10 µM (D1 dopaminergic receptor; single concentration 10 µM) [%] | inhibition at 10 µM (D2 dopaminergic receptor; single concentration 10 µM) [%] | inhibition at 10 µM (D4 dopaminergic receptor; single concentration 10 µM) [%] | also measured
CNC(=O)[C@@]12C[C@@H]1[C@@H](n1cnc3c(NCc4cccc(Cl)c4)nc(C#Cc4ccc(F)c(F)c4)nc31)[C@H](O)[C@@H]2O [Compound 1] | 1450 ± 510 | 2580 ± 220 | 7190 ± 1410 nM | 0 |  |  |  |  |  |  |  |  |  |  |  |  | inhibition at 10 µM (β3 adrenergic receptor): 74%; inhibition at 10 µM [1]: 34%; inhibition at 10 µM [2]: 20%; inhibition at 10 µM [3]: 3%; Ki (δ opioid receptor): 2440 ± 1540 nM; inhibition at 10 µM (δ opioid receptor): 44%; inhibition at 10 µM (α1B adrenergic receptor): 44%; inhibition at 10 µM [4]: 9%; inhibition at 10 µM [5]: 2%; inhibition at 10 µM [6]: 20%; inhibition at 10 µM (D1 dopaminergic receptor): 13%; inhibition at 10 µM (D2 dopaminergic receptor): 0%; inhibition at 10 µM (D4 dopaminergic receptor): 0%
CNC(=O)[C@@]12C[C@@H]1[C@@H](n1cnc3c(NCc4cccc(Cl)c4)nc(C#Cc4ccc(F)cc4)nc31)[C@H](O)[C@@H]2O [Compound 2] | 1560 ± 560 | 2130 ± 270 |  | 0 | 67 | 56 | 16 | 25 | 24 | 1 | 12 | 6 | 8 | 19 | 0 | 0 | Ki (δ opioid receptor): 6620 ± 1700 nM
CNC(=O)[C@@]12C[C@@H]1[C@@H](n1cnc3c(NCc4cccc(Cl)c4)nc(C#Cc4ccccc4Cl)nc31)[C@H](O)[C@@H]2O [Compound 3] | 1170 ± 190 | 3650 ± 1050 |  | 0 | 57 | 55 | 25 | 29 | 31 | 7 | 0 | 5 | 8 | 27 | 0 | 1 | Ki [3]: 6300 nM
CNC(=O)[C@@]12C[C@@H]1[C@@H](n1cnc3c(NCc4cccc(Cl)c4)nc(Cl)nc31)[C@H](O)[C@@H]2O [Compound 4] |  | 75 ± 7 | 120 nM and 122 nM | 0 | 0 | 95 | 95 | 21 | 10 | 30 | 0 | 1 | 30 | 11 | 16 | 6 | 
CNC(=O)[C@@]12C[C@@H]1[C@@H](n1cnc3c(NC)nc(C#Cc4ccc(F)c(F)c4)nc31)[C@H](O)[C@@H]2O [Compound 5] | 2320 ± 390 |  |  | 0 | 22 |  |  | 5 | 9 | 11 | 0 | 5 | 0 | 0 | 18 | 4 | inhibition at 10 µM [1]: 4%; inhibition at 10 µM [2]: 1%
O[C@@H]1[C@H](O)[C@@H]2C[C@@H]2[C@H]1n1cnc2c(NCc3cccc(Cl)c3)nc(C#Cc3ccc(F)c(F)c3)nc21 [Compound 6] | 2460 ± 130 |  |  |  | 27 | 34 | 0 | 15 | 11 | 19 | 3 | 0 | 32 | 3 | 9 | 0 | 
O[C@@H]1[C@H](O)[C@@H]2C[C@@H]2[C@H]1n1cnc2c(NCc3cccc(Cl)c3)ncnc21 [Compound 7] |  | 2220 ± 650 | 1740 nM | 0 | 4 | 75 | 51 | 16 | 7 | 32 | 24 | 11 | 4 | 2 | 6 | 0 | 
Fc1ccc(C#Cc2nc(NCc3cccc(Cl)c3)c3nc[nH]c3n2)cc1F [Compound 8] |  | 4000 ± 1920 |  | 0 | 5 | 39 | 11 | 11 | 12 | 30 | 27 | 10 | 4 | 0 | 0 | 0 | 
Clc1cccc(CNc2nc(Cl)nc3[nH]cnc23)c1 [Compound 9] |  | 1780 ± 350 | 3320 ± 320 nM | 8 | 0 | 55 | 56 | 38 | 7 | 0 | 12 | 0 | 0 | 0 | 0 | 0 | Ki [3]: 4490 nM
